Experiments:
[1] = Body weight gain and food intake in DIO mice; assay type: in vivo, C57Bl/6 mice; conditions: 25 days post treatment, vs non-treated obese mice
Text: All animal studies were approved by the Committee on Animal Care, Massachusetts Institute of Technology. 6-week-old male wild-type mice and 10-week-old male diet-induced obese mice, of the C57Bl/6 strain, were used in current studies. High-fat-diet (TD-06414, 60/Fat) was purchased from Harlan Laboratories, and was used to induce and maintain obesity in C57Bl/6 mice.
Standard diet fed or high-fat-diet fed C57Bl/6 mice were intravenous injected with either NP constructs or free drug (rosiglitazone or 16,16-dimethyl-PGE2) at the drug dose of 80 mg/kg, every second day. Free Rosi was dissolved in DMSO followed by dilution in saline.
The high-fat-diet induced obese model was used to assess the possible impact of the two peptide-NP-Rosi on body weight, tissue histology, and molecular expression profiles. There was no difference in body weight gain between the mice treated with Rosi (in solution and non-targeted NP forms) and non-treated obese mice (FIGS. 5A and B).

[2] = test system: stromal vascular fragments (SVF) from WAT; assay: qRT-PCR of integrin expression in SVF treated in vitro; assay type: cell-based, mice; conditions: Rosi 1 μM
Protocol: (§1) WAT was dissected and extensively washed with Hank's Balanced Salt Solution (HBSS, Invitrogen). Tissues were cut into small pieces using a surgical scissor, and digested with 0.1% collagenase A in HBSS and 1% bovine serum albumin (SigmaAldrich) for 30 minutes at 37 C with gentle shaking. The digested tissues were suspended in Dulbecco's modified Eagle's medium containing 10% fetal bovine serum, and then passed through a 100 μm cell strainer (BD Falcon) to remove debris. Subsequently, cell suspension was centrifuged for 10 minutes at 300×g. 3. After removal of the floating cell layer and supernatant, the cell pellet was resuspended in 10 ml of HBSS, and then filtered through a 40 μm cell strainer (BD Falcon). The filtered cell suspension was layered on top of a Histopaque-1077 solution (10 ml) in a 50 ml tube, and then centrifuged at 400 g for 30 min at room temperature. The SVF cell layer at the gradient interface was collected and washed with HBSS. Cell counts and viability assessment were performed. Primary SVF or sorted cells were maintained in DMEM plus 10% FCS, 1% penicillin/streptomycin, and 10 ng/ml murine bFGF (R&D Systems).
(§2) Angiogenic vessels usually express high levels of integrins, particularly αv and β3 subunits. […]

[3] = Serological parameters in fasted DIO mice; assay type: in vivo, C57Bl/6 mice; conditions: 25 days
Protocol: Serum levels of free fatty acid, glucose, triglycerides and cholesterol contents from fasted obese mice were determined by standard kits from Cayman Chemical Co. (Ann Arbor, Mich.). Serum insulin from fasted obese mice was determined by ELISA method according to manufacturer's protocol (Millipore, Billerica, Mass.).
Serum was collected from DIO mice that were fasted for five hours following 25 days of treatments, and analyzed for levels of serological parameters.

[4] = test system: stromal vascular fragments (SVF) from WAT; assay: Proliferation and cellular toxicity of SVF; assay type: cell-based, mice; conditions: in vitro
Protocol: as §1, §2

CD31+ SVF = assay: Integrinαv antibody staining of CD31-sorted SVF; assay type: cell-based, mice; conditions: in vitro
Protocol: Angiogenic vessels usually express high levels of integrins, particularly αv and β3 subunits. To evaluate whether Rosi-loaded NPs can effectively induce expression of integrins on vascular cells, the stromal vascular fragments (SVF) were isolated from WAT, followed by treatment with Rosi (1 μM) in either solution or non-targeted NP form. CD31+ SVF was sorted and stained with Integrinαv antibody, Isolectin B4 and DAPI. C57Bl/6 mice were treated with Rosi, NP-Rosi, iRGD-NP-Rosi or P3-NP-Rosi for two weeks (n=3). IngWAT, epiWAT and livers were dissected and representative samples were imaged under IVIS imaging system. Inguinal WAT and epididymal WAT were dissected and representative samples were photographed.
It should also be noted that no evidence of cellular toxicity was observed under all the conditions. SVFs were sorted with an endothelial marker CD31, and stained cells with an Integrinαv antibody.

## CN(CCOc1ccc(CC2SC(=O)NC2=O)cc1)c1ccccn1 (racemic) [Rosi, (RS)-5-[4-(2-[methyl(pyridin-2-yl)amino]ethoxy)benzyl]thiazolidine-2,4-dione]
[1]
  body weight gain: no difference
[2]
  expression level of Integrinαv on SVF (qRT-PCR): elevated the expression levels of Integrinαv
[3]
  reduction of serum insulin: 3 folds
[4]
  proliferation of SVF: stimulated the proliferation of SVF
CD31+ SVF
  Integrinαv on CD31-sorted SVF (antibody staining): upregulated
